Assay results published in patent publication US9388382B2, “Isolation of CD14 negative, CD45 positive and CD117 positive embryonic-like stem cells free of monocytes from human umbilical cord blood mononuclear cells” (THE BOARD OF TRUSTEES OF THE UNIVERSITY OF ILLINOIS, priority 2005, dated 2016).

Columns and labels:
[1] = system: DNA methyltransferase (DNMT) activity of lymphocytes; assay: DNA methyltransferase activity of lymphocytes regulated by CB-SC-derived NO; assay type: cell-based; details: presence of iNOS inhibitor
[2] = system: ConA-stimulated lymphocytes of diabetic NOD mouse; assay: ConA-stimulated autoimmune lymphocyte proliferation in coculture with differentiated embryonic-like stem cells; assay type: cell-based; details: MGTA 10 μM, p<0.01
Experimental: The specific carboxypeptidase inhibitor, carboxypeptidase inhibitor 2-mercaptomethyl-3-guanidinoethylthiopropanoic acid (MGTA, 10 μM) was applied to block carboxypeptidase. First, embryonic-like stem cells were differentiated by treatment with 10 nM Exendin4+10 ng/ml GM-CSF+25 mM glucose in 7% FBS-DMEM culture medium for 3-5 days. Second, autoimmune lymphocytes were isolated form the diabetic NOD mouse and then cocultured with these embryonic-like stem cells in the presence MGTA. The mouse lymphocyte mitogen concanavalin A (ConA) was used to stimulate the proliferation of lymphocytes.

[3] = system: PHA- or IL-2-stimulated allogeneic lymphocytes; assay: Mitogen-stimulated lymphocyte proliferation in coculture with CB-SC (cell count); assay type: cell-based, human; details: 200 μM/day L-NNA for 3 days, p<0.05
Experimental: (§1) For PHA stimulation, lymphocyte suspensions (1×10^6 cells/ml) with or without PHA (10 μg/ml, Sigma) were seeded onto CB-SC cell cultures in regular culture medium. PHA-stimulated lymphocytes without CB-SC served as positive control; lymphocytes cultured only in regular medium served as negative control. Lymphocytes cocultured with CB-SC without PHA stimulation served as an additional negative control. For IL-2 stimulation, IL-2 (500 U/ml, eBioscience) was used. After 5-6 days, the suspended lymphocytes were collected for cell count and/or flow analysis.
Unfixed CB-SC from same cord blood units served as controls. Additionally, we employed transwell culture system with 0.4 μm size (Sigma) to plant lymphocytes.
In experiments where N^ω-nitro-L-arginine (L-NNA, Sigma) was used to inhibit NO synthase, the drug (200 μM L-NNA) was added 1 h before PHA stimulation and then administrated 200 μM/day for additional two days. [Ziche, M., L. Morbidelli, E. Masini, S. Amerini, H. J. Granger, C. A. Maggi, P. Geppetti, and F. Ledda. 1994. Nitric oxide mediates angiogenesis in vivo and endothelial cell growth and migration in vitro promoted by substance P. J Clin Invest. 94:2036-2044].

[4] = system: intracytoplasmic IL-10 in allogeneic lymphocytes; assay: Flow analysis of intracellular IL-10 production; assay type: cell-based, human; details: PHA-stimulated lymphocytes without CB-SC
Experimental: Allogeneic lymphocytes were cocultured with CB-SC at ratio 1:10 of CB-SC: lymphocytes, in the presence or absence of mitogen PHA. After coculture for 5-6 days, cells were permeabalized and evaluated for intracytoplasmic IL-10 level by flow cytometry. Isotype-matched mouse IgG1κ antibody served as negative control. Data represent one of at least three experiments with the similar results;
as §1
Flow analysis was preformed as previously described [Zhao, Y., H. Wang, and T. Mazzone. 2006. Identification of stem cells from human umbilical cord blood with embryonic and hematopoietic characteristics. Exp Cell Res. 2006, 312: 2454-2464. DOI: 10.1016/j.yexcr.2006.04.008. April 26; (Epub ahead of print)]. […] After staining, cells were analyzed using a CyAn ADP (DakoCytomation).

[5] = system: human peripheral blood lymphocyte subsets; assay: Coculture of CB-SC with lymphocytes, flow analysis of T cell subsets; assay type: cell-based; details: PHA stimulation without CB-SC, p<0.05
Excerpt: CB-SC adhere very tightly to the culture dishes and display large rounded morphology, it is easy to distinguish between CB-SC and lymphocytes. CB-SC growing at 80% confluence were used for coculture with allogeneic lymphocytes. Allogeneic lymphocytes were collected from buffy coats of healthy donors (Life-Source Blood Services, Glenview, Ill.) after Ficoll-Hypaque separation followed by removing all attached cells and then cocultured with CB-SC at the ratio (1:10) [Zhao, Y., H. Wang, and T. Mazzone. 2006. Identification of stem cells from human umbilical cord blood with embryonic and hematopoietic characteristics. Exp Cell Res. 2006, 312: 2454-2464. DOI: 10.1016/j.yexcr.2006.04.008. April 26; (Epub ahead of print)] of CB-SC.
For PHA stimulation, lymphocyte suspensions (1×10^6 cells/ml) with or without PHA (10 μg/ml, Sigma) were seeded onto CB-SC cell cultures in regular culture medium. PHA-stimulated lymphocytes without CB-SC served as positive control; lymphocytes cultured only in regular medium served as negative control. Lymphocytes cocultured with CB-SC without PHA stimulation served as an additional negative control. For IL-2 stimulation, IL-2 (500 U/ml, eBioscience) was used. […]
Flow analysis was preformed as previously described [Zhao, Y., H. Wang, and T. Mazzone. […] After staining, cells were analyzed using a CyAn ADP (DakoCytomation). […]

In the case of `CC(=N)NCc1cccc(CN)c1` [1400 W], the “blocking of regulation of lymphocyte DNMT activity by CB-SC-derived NO” value [1] is reported as “significantly blocked”.
“2-mercaptomethyl-3-guanidinoethylthiopropanoic acid [MGTA]” was tested, and the “reversal of stem-cell inhibition of ConA-stimulated lymphocyte proliferation” value [2] was “completely revert their inhibition”.
For `NC(=NCCC[C@H](N)C(=O)O)N[N+](=O)[O-]` [L-NNA, N-omega-nitro-L-arginine], the “lymphocyte cell number in presence vs absence of L-NNA” value [3] was “about 4 fold”.
In the case of phytohaemagglutinin [PHA], the IL-10-positive cells [4] is reported as 80% and the “increase of CD8^+ and decrease of CD4^+ T cell percentage vs lymphocytes alone” value [5] is reported as “more than 2 fold”.
